Values of other authors in patent US20060201863A1, “Sterilization water tank” (priority 2003, published 2006).

Key:
Bacteria = conditions: against Bacteria
Salmonella = conditions: against Salmonella
Rice-straw bacillus = conditions: against Rice-straw bacillus
Pneumonia bacillus = conditions: against Pneumonia bacillus
Staphylococcus = conditions: against Staphylococcus
Pseudomonas aeruginosa = conditions: against Pseudomonas aeruginosa
Colitis germs [1] = conditions: against Colitis germs
Colitis germs [2] = conditions: silver in an ionized state

SMILES	MIC (minimum inhibitory concentration) (Bacteria) [ppm]	MIC (minimum inhibitory concentration) (Salmonella) [ppm]	MIC (minimum inhibitory concentration) (Rice-straw bacillus) [ppm]	MIC (minimum inhibitory concentration) (Pneumonia bacillus) [ppm]	MIC (minimum inhibitory concentration) (Staphylococcus) [ppm]	MIC (minimum inhibitory concentration) (Pseudomonas aeruginosa) [ppm]	MIC (minimum inhibitory concentration) (Colitis germs [1]) [ppm]	amount that may kill colitis germs (Colitis germs [2])
[Cu+2] [Copper ion, reference compound]	400	400	400	200	400	400	200	
[Ag+] [Silver ion]	0.78	0.78	1.56	0.78	0.78	0.78	6.3	about several ten
